Results published in patent US20230322846A9, “NEUROACTIVE STEROIDS AND THEIR METHODS OF USE” (SAGE THERAPEUTICS, INC., priority 2018, published 2023).

Biological target: [35S]-TBPS binding, rat brain cortical membranes
Experiment: Steroid inhibition of [35S]-TBPS binding
Conditions: 3 nM [35S]-TBPS, in the presence of 5 mM GABA
Method in brief: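 Rat cortical P2 membranes incubated 90 min at room temperature with 3 nM [35S]-TBPS, […] and test compound (0.5% DMSO final) in NaCl/Na–K phosphate pH 7.4; nonspecific binding with […]. Filter-bound radioactivity counted; IC50 and Imax from nonlinear fits, mean ± SEM.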

Structure (SMILES)	IC50
CCC[C@@]1(O)CC[C@@]2(CC)[C@H](CC[C@H]3[C@@H]4CC[C@H]([C@H](C)Cn5cc(C#N)cn5)[C@@]4(C)CC[C@@H]32)C1 [Example 302, 1-((S)-2-((3R,5R,8S,9S,10S,13S,14S,17R)-10-ethyl-3-hydroxy-13-methyl-3-propylhexadecahydro-1H-cyclopenta[a]phenanthren-17-yl)propyl)-1H-pyrazole-4-carbonitrile]	< 100 nM
C[C@H](Cn1cc(C#N)cn1)[C@H]1CC[C@H]2[C@@H]3CC[C@@H]4C[C@@](O)(CC5CC5)CC[C@@H]4[C@H]3CC[C@]12C [Example 304, 1-((S)-2-((3S,5R,8R,9R,10S,13S,14S,17R)-3-(cyclopropylmethyl)-3-hydroxy-13-methylhexadecahydro-1H-cyclopenta[a]phenanthren-17-yl)propyl)-1H-pyrazole-4-carbonitrile]	< 100 nM
C[C@@H](Cn1cc(C#N)cn1)[C@H]1CC[C@H]2[C@@H]3CC[C@@H]4C[C@](C)(O)CC[C@]4(C)[C@H]3CC[C@]12C [Example 305, 1-((R)-2-((3R,5R,8R,9S,10S,13S,14S,17R)-3-hydroxy-3,10,13-trimethylhexadecahydro-1H-cyclopenta[a]phenanthren-17-yl)propyl)-1H-pyrazole-4-carbonitrile]	< 100 nM
C[C@H](Cn1cc(C#N)cn1)[C@H]1CC[C@H]2[C@@H]3CC[C@@H]4C[C@](C)(O)CC[C@]4(C)[C@H]3CC[C@]12C [Example 306, 1-((S)-2-((3R,5R,8R,9S,10S,13S,14S,17R)-3-hydroxy-3,10,13-trimethylhexadecahydro-1H-cyclopenta[a]phenanthren-17-yl)propyl)-1H-pyrazole-4-carbonitrile]	< 100 nM
CCC[C@@]1(O)CC[C@@]2(C)[C@H](CC[C@@H]3[C@@H]2CC[C@]2(C)[C@@H]([C@@H](C)Cn4cc(C#N)cn4)CC[C@@H]32)C1 [Example 307, 1-((R)-2-((3R,5R,8R,9S,10S,13S,14S,17R)-3-hydroxy-10,13-dimethyl-3-propylhexadecahydro-1H-cyclopenta[a]phenanthren-17-yl)propyl)-1H-pyrazole-4-carbonitrile]	< 100 nM
CCC[C@@]1(O)CC[C@@]2(C)[C@H](CC[C@@H]3[C@@H]2CC[C@]2(C)[C@@H]([C@H](C)Cn4cc(C#N)cn4)CC[C@@H]32)C1 [Example 308, 1-((S)-2-((3R,5R,8R,9S,10S,13S,14S,17R)-3-hydroxy-10,13-dimethyl-3-propylhexadecahydro-1H-cyclopenta[a]phenanthren-17-yl)propyl)-1H-pyrazole-4-carbonitrile]	< 100 nM
CCC[C@@]1(O)CC[C@@]2(C)[C@H](CC[C@@H]3[C@@H]2[C@@H](O)C[C@]2(C)[C@@H]([C@@H](C)Cn4cc(C#N)cn4)CC[C@@H]32)C1 [Example 309, 1-((R)-2-((3R,5R,8S,9S,10S,11S,13S,14S,17R)-3,11-dihydroxy-10,13-dimethyl-3-propylhexadecahydro-1H-cyclopenta[a]phenanthren-17-yl)propyl)-1H-pyrazole-4-carbonitrile]	< 100 nM
CCC[C@@]1(O)CC[C@@]2(C)[C@H](CC[C@@H]3[C@@H]2[C@@H](O)C[C@]2(C)[C@@H]([C@H](C)Cn4cc(C#N)cn4)CC[C@@H]32)C1 [Example 310, 1-((S)-2-((3R,5R,8S,9S,10S,11S,13S,14S,17R)-3,11-dihydroxy-10,13-dimethyl-3-propylhexadecahydro-1H-cyclopenta[a]phenanthren-17-yl)propyl)-1H-pyrazole-4-carbonitrile]	100 to 1000 nM
CCCC[C@@]1(O)CC[C@H]2[C@H](CC[C@@H]3[C@@H]2CC[C@]2(C)[C@@H]([C@H](C)Cn4cc(C#N)cn4)CC[C@@H]32)C1 [Example 312]	< 100 nM
CCC[C@@]1(O)CC[C@@]2(C)[C@H](CC[C@@H]3[C@@H]2CC[C@]2(C)[C@@H]([C@@H](C)Cn4nnc(C)n4)CC[C@@H]32)C1 [Example 313, (3R,5R,8R,9S,10S,13S,14S,17R)-10,13-dimethyl-17-((R)-1-(5-methyl-2H-tetrazol-2-yl)propan-2-yl)-3-propylhexadecahydro-1H-cyclopenta[a]phenanthren-3-ol]	< 100 nM
CCC[C@@]1(O)CC[C@@]2(C)[C@H](CC[C@@H]3[C@@H]2CC[C@]2(C)[C@@H]([C@H](C)Cn4nnc(C)n4)CC[C@@H]32)C1 [Example 314, (3R,5R,8R,9S,10S,13S,14S,17R)-10,13-dimethyl-17-((S)-1-(5-methyl-2H-tetrazol-2-yl)propan-2-yl)-3-propylhexadecahydro-1H-cyclopenta[a]phenanthren-3-ol]	100 to 1000 nM
CCC[C@@]1(O)CC[C@@]2(C)[C@H](CC[C@@H]3[C@@H]2CC[C@]2(C)[C@@H]([C@@H](C)Cn4nnnc4C)CC[C@@H]32)C1 [Example 315, (3R,5R,8R,9S,10S,13S,14S,17R)-10,13-dimethyl-17-((R)-1-(5-methyl-1H-tetrazol-1-yl)propan-2-yl)-3-propylhexadecahydro-1H-cyclopenta[a]phenanthren-3-ol]	< 100 nM
CCC[C@@]1(O)CC[C@@]2(C)[C@H](CC[C@@H]3[C@@H]2CC[C@]2(C)[C@@H]([C@H](C)Cn4nnnc4C)CC[C@@H]32)C1 [Example 316, (3R,5R,8R,9S,10S,13S,14S,17R)-10,13-dimethyl-17-((S)-1-(5-methyl-1H-tetrazol-1-yl)propan-2-yl)-3-propylhexadecahydro-1H-cyclopenta[a]phenanthren-3-ol]	< 100 nM
CC[C@]12CC[C@H]3[C@@H](CC[C@@H]4C[C@](C)(O)CC[C@@H]43)[C@@H]1CC[C@@H]2[C@@H](C)Cn1cc(C#N)cn1 [Example 317, 1-((R)-2-((3R,5R,8R,9R,10S,13S,14S,17R)-13-ethyl-3-hydroxy-3-methylhexadecahydro-1H-cyclopenta[a]phenanthren-17-yl)propyl)-1H-pyrazole-4-carbonitrile]	< 100 nM
CC[C@]12CC[C@H]3[C@@H](CC[C@@H]4C[C@](C)(O)CC[C@@H]43)[C@@H]1CC[C@@H]2[C@H](C)Cn1cc(C#N)cn1 [Example 318, 1-((S)-2-((3R,5R,8R,9R,10S,13S,14S,17R)-13-ethyl-3-hydroxy-3-methylhexadecahydro-1H-cyclopenta[a]phenanthren-17-yl)propyl)-1H-pyrazole-4-carbonitrile]	< 100 nM
CCC[C@@]1(O)CC[C@@]2(COC)[C@H](CC[C@H]3[C@@H]4CC[C@H]([C@@H](C)Cn5nnc(C)n5)[C@@]4(C)CC[C@@H]32)C1 [Example 319, (3R,5R,8S,9S,10R,13S,14S,17R)-10-(methoxymethyl)-13-methyl-17-((R)-1-(5-methyl-2H-tetrazol-2-yl)propan-2-yl)-3-propylhexadecahydro-1H-cyclopenta[a]phenanthren-3-ol]	< 100 nM
CCC[C@@]1(O)CC[C@@]2(COC)[C@H](CC[C@H]3[C@@H]4CC[C@H]([C@@H](C)Cn5nnnc5C)[C@@]4(C)CC[C@@H]32)C1 [Example 321, (3R,5R,8S,9S,10R,13S,14S,17R)-10-(methoxymethyl)-13-methyl-17-((R)-1-(5-methyl-1H-tetrazol-1-yl)propan-2-yl)-3-propylhexadecahydro-1H-cyclopenta[a]phenanthren-3-ol]	< 100 nM
CCC[C@@]1(O)CC[C@@]2(COC)[C@H](CC[C@H]3[C@@H]4CC[C@H]([C@H](C)Cn5nnnc5C)[C@@]4(C)CC[C@@H]32)C1 [Example 322, (3R,5R,8S,9S,10R,13S,14S,17R)-10-(methoxymethyl)-13-methyl-17-((S)-1-(5-methyl-1H-tetrazol-1-yl)propan-2-yl)-3-propylhexadecahydro-1H-cyclopenta[a]phenanthren-3-ol]	< 100 nM
CCC[C@@]1(O)CC[C@H]2[C@H](CC[C@@H]3[C@@H]2CC[C@]2(C)[C@@H]([C@@H](C)Cn4nnnc4C)CC[C@@H]32)C1 [Example 324, (3R,5R,8R,9R,10S,13S,14S,17R)-13-methyl-17-(1-(5-methyl-1H-tetrazol-1-yl)propan-2-yl)-3-propylhexadecahydro-1H-cyclopenta[a]phenanthren-3-ol]	< 100 nM
COC[C@@]1(O)CC[C@@]2(C)[C@H](CC[C@@H]3[C@@H]2[C@@H](O)C[C@]2(C)[C@@H]([C@@H](C)Cn4cc(C#N)cn4)CC[C@@H]32)C1 [Example 327, 1-((R)-2-((3R,5R,8S,9S,10S,11S,13S,14S,17R)-3,11-dihydroxy-3-(methoxymethyl)-10,13-dimethylhexadecahydro-1H-cyclopenta[a]phenanthren-17-yl)propyl)-1H-pyrazole-4-carbonitrile]	100 to 1000 nM
COC[C@@]1(O)CC[C@@]2(C)[C@H](CC[C@@H]3[C@@H]2[C@@H](O)C[C@]2(C)[C@@H]([C@H](C)Cn4cc(C#N)cn4)CC[C@@H]32)C1 [Example 328, 1-((S)-2-((3R,5R,8S,9S,10S,11S,13S,14S,17R)-3,11-dihydroxy-3-(methoxymethyl)-10,13-dimethylhexadecahydro-1H-cyclopenta[a]phenanthren-17-yl)propyl)-1H-pyrazole-4-carbonitrile]	100 to 1000 nM
CCC[C@@]1(O)CC[C@H]2[C@@H](CC[C@@H]3[C@@H]2CC[C@]2(C)[C@@H]([C@@H](C)Cn4nnc(C)n4)CC[C@@H]32)C1 [Example 329, (3R,5S,8R,9R,10S,13S,14S,17R)-13-methyl-17-((R)-1-(5-methyl-2H-tetrazol-2-yl)propan-2-yl)-3-propylhexadecahydro-1H-cyclopenta[a]phenanthren-3-ol]	≥ 10000 nM
